Assay results published in patent US5747447A, “Stable polypeptide composition” (COR Therapeutics, priority 1995, dated 1998).
Like-named read-outs stand apart in the source and are kept apart here. Where a SMILES comes first, the peptide text is derived from it. Bridges are numbered along the chain shown (N, C = ends). [ ]: non-standard residue; d: D form. 2Nal = N[C@@H](Cc1ccc2ccccc2c1)C(=O)O; hArg = N=C(N)NCCCC[C@H](N)C(=O)O; Pen = CC(C)(S)[C@H](N)C(=O)O; Mpa = O=C(O)CCS

Experiments:
[1] = test system: M21 melanoma cells; assay: M21 melanoma cell adhesion to vitronectin-coated plates; assay type: cell-based
Method: M21 melanoma cells were labelled with ^35 S-methionine, and then added to vitronectin-coated plates in the presence of the indicated concentrations of purified snake venom peptides. Cell attachment was measured by solubilizing the cells remaining after an incubation and wash, as previously describe.

[2] = molecular target: ADP-induced human platelet aggregation (Homo sapiens, UniProt P05106+P08514); assay: standard aggregation inhibition assay (ADP-induced human platelet aggregation); assay type: cell-based; details: for IC50: ADP-induced human platelet aggregation, read-out: Appr, IC50
Excerpt: 2. Standard assays directly applied to platelet aggregation, such as those described by Gann, Z.-R., et al., J Biol Chem (1988) 263:19827-19832; Huang, T. F., et al., J Biol Chem (1987) 262:16157-16163; Biochemistry (1989) 28:661-666, cited above and incorporated herein by reference;

[3] = molecular target: T1, GP IIb-IIIa (Homo sapiens, UniProt P05106+P08514); assay type: binding; details: plate assays
T1 construct: GP IIb-IIIa, prepared in purified form; from tissue; own knowledge of the cited Fitzgerald et al. 1985 method
Method: In the assay, GP IIb-IIIa, prepared in purified form, for example as described by Fitzgerald, L. A., et al., Anal Biochem (1985) 151:169-177, incorporated herein by reference, is coated onto a solid support such as beads, test tubes, or microtiter plates. The coated support is then contacted with fibrinogen and with the test material and incubated for a sufficient time to permit maximal binding of fibrinogen to the immobilized GP IIb-IIIa. Fibrinogen is typically provided at a concentration of about 5-50 nM and the test material can, if desired, be added at a series of dilutions. Typical incubations are 2-4 hr at 35° C., the time and temperature being interdependent.
After incubation, the solution containing the fibrinogen and test material is removed and the level of binding of fibrinogen measured by quantitating bound fibrinogen to GP IIb-IIIa. Any suitable means of detection can be used, but it is convenient to employ labeled fibrinogen, for example using radioactive, fluorescent or biotinylated labels. Such methods are well known and need not be elaborated here.
Assessment of the results is aided by employing a control sample, usually identical to the test sample except that the test substance is absent. In this case, percent inhibition may be calculated using the basis, so that [formula] Other measures of inhibition effectiveness, such as IC50, can also be used.

[4] = Method: 20 ml aliquots of the above solution were placed into Type I glass vials and sealed with rubber stoppers and aluminum closures under sterile conditions and stored at a constant temperature. Test sample vials from each temperature condition, -15° C., 5° C., 30° C. and 45° C. were removed periodically and individually assessed and analyzed for stability by HPLC and visual evaluation as described in Example 1.
[5] = Stability of polypeptide I in citrate buffer, HPLC and visual (Example 1); assay type: physicochemical; details: citrate buffer pH 5.00 and 5.50 versus pH 6.0
Method: Citrate buffer solution is prepared by mixing citric acid in a volumetric flask to give a final citrate concentration of 25 mM with Nanopure water and adding NaOH to adjust the pH.
One ml aliquots of the above solution of polypeptide in citrate buffer were sealed in borosilicate glass ampules under sterile conditions and stored at a constant temperature. Test sample ampules from each pH and temperature condition 4° C., 50° C. and 70° C. were removed periodically, visually assessed and then analyzed separately by HPLC using a mobile phase comprising acetonitrile (MeCN) and 0.1% trifluoroacetic (TFA) in water. This stability was evaluated by conventional assay methods applicable to purity, weight or size of polypeptides. These included not only visual evaluations, such as discoloration, transparency and precipitation, and included assays normally applied to separate polypeptides from each other and from other materials by reversed phase high performance liquid chromatography (HPLC).
Results of these experiments are set forth in Table 1 in which the stability is expressed in terms of the percentage of main peak of original polypeptide found in the sample analyzed by HPLC. The composition was also found to be normal on visual evaluation.

[6] = 25 mM citrate buffer pH 5.25, about 1 mg/mL
Excerpt: Test sample vials from each temperature condition were removed periodically and analyzed for stability by HPLC and visual inspection as described in Example 1.

ADP-induced human platelet aggregation, sequence (P08514 32-1039): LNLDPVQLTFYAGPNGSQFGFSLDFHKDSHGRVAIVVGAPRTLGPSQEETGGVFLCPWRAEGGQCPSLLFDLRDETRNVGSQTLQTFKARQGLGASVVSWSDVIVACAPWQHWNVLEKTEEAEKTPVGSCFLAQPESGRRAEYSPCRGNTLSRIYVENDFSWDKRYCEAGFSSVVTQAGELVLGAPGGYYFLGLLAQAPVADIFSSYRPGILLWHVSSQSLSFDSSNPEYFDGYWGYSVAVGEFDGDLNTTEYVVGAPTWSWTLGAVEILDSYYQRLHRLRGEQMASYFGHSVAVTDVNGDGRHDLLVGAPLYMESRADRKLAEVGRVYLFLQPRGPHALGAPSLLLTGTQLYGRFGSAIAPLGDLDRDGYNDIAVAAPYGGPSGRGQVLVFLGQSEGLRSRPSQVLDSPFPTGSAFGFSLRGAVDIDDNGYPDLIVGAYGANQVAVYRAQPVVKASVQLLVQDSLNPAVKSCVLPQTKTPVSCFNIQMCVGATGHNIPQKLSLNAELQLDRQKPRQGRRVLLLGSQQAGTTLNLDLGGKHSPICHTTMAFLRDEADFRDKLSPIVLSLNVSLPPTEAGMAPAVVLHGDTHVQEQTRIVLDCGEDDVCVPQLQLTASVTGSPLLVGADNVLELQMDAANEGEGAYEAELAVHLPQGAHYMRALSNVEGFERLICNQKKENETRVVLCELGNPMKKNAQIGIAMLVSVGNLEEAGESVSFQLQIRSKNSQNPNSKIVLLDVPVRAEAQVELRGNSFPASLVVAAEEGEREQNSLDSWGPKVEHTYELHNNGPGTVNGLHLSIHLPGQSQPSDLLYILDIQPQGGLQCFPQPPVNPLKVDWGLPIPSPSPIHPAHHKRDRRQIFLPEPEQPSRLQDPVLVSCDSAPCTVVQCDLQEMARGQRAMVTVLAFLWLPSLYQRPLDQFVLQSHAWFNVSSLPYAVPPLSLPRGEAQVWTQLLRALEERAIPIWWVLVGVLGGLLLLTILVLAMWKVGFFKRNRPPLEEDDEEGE
ADP-induced human platelet aggregation, sequence (P05106 27-788): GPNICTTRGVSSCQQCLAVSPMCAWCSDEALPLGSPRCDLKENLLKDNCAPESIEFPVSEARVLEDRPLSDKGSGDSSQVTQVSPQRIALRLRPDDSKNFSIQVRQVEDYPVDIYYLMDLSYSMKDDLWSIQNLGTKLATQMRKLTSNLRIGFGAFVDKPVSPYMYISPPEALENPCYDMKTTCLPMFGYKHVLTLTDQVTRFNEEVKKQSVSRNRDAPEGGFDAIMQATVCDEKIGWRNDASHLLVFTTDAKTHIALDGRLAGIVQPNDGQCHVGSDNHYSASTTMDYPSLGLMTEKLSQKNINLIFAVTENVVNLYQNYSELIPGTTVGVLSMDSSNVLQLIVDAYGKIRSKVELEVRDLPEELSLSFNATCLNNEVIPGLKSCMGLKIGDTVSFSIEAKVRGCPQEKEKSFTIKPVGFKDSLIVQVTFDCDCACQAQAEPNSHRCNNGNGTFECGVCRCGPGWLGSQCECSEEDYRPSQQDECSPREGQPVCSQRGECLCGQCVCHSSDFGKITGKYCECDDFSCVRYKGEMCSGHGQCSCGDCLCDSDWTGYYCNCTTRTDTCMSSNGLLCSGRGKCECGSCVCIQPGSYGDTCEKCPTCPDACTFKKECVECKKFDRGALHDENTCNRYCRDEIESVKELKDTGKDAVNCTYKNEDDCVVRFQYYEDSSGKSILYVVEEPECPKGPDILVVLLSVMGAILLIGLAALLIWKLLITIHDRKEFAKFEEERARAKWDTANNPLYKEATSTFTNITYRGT
T1 sequence (P08514 32-887 limits assumed): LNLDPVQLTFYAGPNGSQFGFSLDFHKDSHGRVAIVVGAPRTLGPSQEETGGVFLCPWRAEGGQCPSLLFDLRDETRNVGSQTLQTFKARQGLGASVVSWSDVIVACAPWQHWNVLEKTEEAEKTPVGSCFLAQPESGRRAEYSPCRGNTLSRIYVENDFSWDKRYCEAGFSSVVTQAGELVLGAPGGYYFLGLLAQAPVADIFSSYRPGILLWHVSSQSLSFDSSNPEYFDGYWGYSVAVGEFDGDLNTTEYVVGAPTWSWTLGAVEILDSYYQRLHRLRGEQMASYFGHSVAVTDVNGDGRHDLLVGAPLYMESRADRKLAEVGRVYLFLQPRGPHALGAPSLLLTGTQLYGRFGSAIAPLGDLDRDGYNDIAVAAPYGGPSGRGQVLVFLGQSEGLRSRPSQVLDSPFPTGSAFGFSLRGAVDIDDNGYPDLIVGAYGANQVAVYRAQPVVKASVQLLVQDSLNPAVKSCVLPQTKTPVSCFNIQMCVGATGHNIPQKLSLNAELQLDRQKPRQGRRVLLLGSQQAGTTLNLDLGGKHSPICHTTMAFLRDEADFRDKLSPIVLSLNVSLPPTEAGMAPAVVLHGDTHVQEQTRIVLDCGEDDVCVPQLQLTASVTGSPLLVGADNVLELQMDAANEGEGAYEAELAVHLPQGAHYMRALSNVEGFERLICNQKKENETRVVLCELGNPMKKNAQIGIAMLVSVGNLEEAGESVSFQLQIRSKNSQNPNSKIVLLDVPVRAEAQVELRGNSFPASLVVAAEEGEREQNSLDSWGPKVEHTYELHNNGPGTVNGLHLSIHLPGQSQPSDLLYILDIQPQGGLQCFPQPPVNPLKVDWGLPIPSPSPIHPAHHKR
T1 sequence (P08514 891-1039 limits assumed): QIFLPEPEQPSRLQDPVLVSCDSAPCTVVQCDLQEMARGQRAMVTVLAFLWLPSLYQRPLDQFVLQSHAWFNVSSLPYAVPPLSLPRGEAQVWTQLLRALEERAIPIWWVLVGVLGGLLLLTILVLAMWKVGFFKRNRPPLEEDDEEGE
T1 sequence (P05106 27-788): as the sequence (P05106 27-788) above

## C[C@H](NC(=O)[C@@H]1CSSC[C@H](NC(=O)CN)C(=O)NCC(=O)N[C@@H](CCCCN)C(=O)NCC(=O)N[C@@H](CC(=O)O)C(=O)N[C@@H](Cc2c[nH]c3ccccc23)C(=O)N2CCC[C@H]2C(=O)N1)C(N)=O [Analog #3, G-C-G-K-G-D-W-P-C-A-NH2]
[1]
  M21 cell attachment to vitronectin (in words): ineffective up to 60 uM

## C[C@H](NC(=O)[C@@H]1CSSC[C@H](NC(=O)CN)C(=O)N[C@@H](CCCCN)C(=O)NCC(=O)N[C@@H](CC(=O)O)C(=O)N[C@@H](Cc2c[nH]c3ccccc23)C(=O)N2CCC[C@H]2C(=O)N1)C(N)=O [Analog #4, G-C-K-G-D-W-P-C-A-NH2] (H-GCKGDWPCA-NH2; disulfide 2-8)
[2]
  IC50: 5000 nM
[3]
  differential fibrinogen/GP IIb-IIIa versus vitronectin/vitronectin receptor (in words): highest differential

## NCCCC[C@@H]1NC(=O)CNC(=O)[C@@H](N)CSSC[C@@H](C(N)=O)NC(=O)[C@@H]2CCCN2C(=O)[C@H](Cc2c[nH]c3ccccc23)NC(=O)[C@H](CC(=O)O)NC(=O)CNC1=O [Analog #5, C-G-K-G-D-W-P-C-NH2] (H-CGKGDWPC-NH2; disulfide 1-8)
[2]
  IC50: 5000 nM
[3]
  differential fibrinogen/GP IIb-IIIa versus vitronectin/vitronectin receptor (in words): quite specific

## C[C@H](NC(=O)[C@@H]1CSSC[C@H](NC(=O)CN)C(=O)N[C@@H](CCCCN)C(=O)NCC(=O)N[C@@H](CC(=O)O)C(=O)N[C@@H](Cc2c[nH]c3ccccc23)C(=O)N1)C(N)=O [Analog #7, G-C-K-G-D-W-C-A-NH2] (H-GCKGDWCA-NH2; disulfide 2-7 (inferred); N-terminus assumed)
[3]
  differential fibrinogen/GP IIb-IIIa versus vitronectin/vitronectin receptor (in words): quite specific

## N=C(N)NCCCC[C@@H]1NC(=O)CCSSC[C@@H](C(N)=O)NC(=O)[C@@H]2CCCN2C(=O)[C@H](Cc2c[nH]c3ccccc23)NC(=O)[C@H](CC(=O)O)NC(=O)CNC1=O [I, Mpr-L-homoarginine-Gly-Asp-Trp-Pro-Cys-NH2 .cndot.acetate] ([Mpa][hArg]GDWPC-NH2; disulfide 1-7)
[4]; 5° C., Time (days) 0
  Peptide Stability in 5.5 pH Citrate Buffer Composition (HPLC as in Example 1): 98.8
[4]; 5° C., Time (days) 76
  Peptide Stability in 5.5 pH Citrate Buffer Composition (HPLC as in Example 1): 98.6
[4]; 5° C., Time (days) 126
  Peptide Stability in 5.5 pH Citrate Buffer Composition (HPLC as in Example 1): 98.5
[4]; 5° C., Time (days) 222
  Peptide Stability in 5.5 pH Citrate Buffer Composition (HPLC as in Example 1): 98.5
[4]; 5° C., Time (days) 301
  Peptide Stability in 5.5 pH Citrate Buffer Composition (HPLC as in Example 1): 98.2
[4]; 5° C., Time (days) 399
  Peptide Stability in 5.5 pH Citrate Buffer Composition (HPLC as in Example 1): 98.2
[4]; 5° C., Time (days) 572
  Peptide Stability in 5.5 pH Citrate Buffer Composition (HPLC as in Example 1): 98.2
[4]; 30° C. after one month at 5° C., Time (days) 45
  Peptide Stability in 5.5 pH Citrate Buffer Composition (HPLC as in Example 1): 97.4
[4]; 30° C. after one month at 5° C., Time (days) 95
  Peptide Stability in 5.5 pH Citrate Buffer Composition (HPLC as in Example 1): 96.4
[4]; 30° C. after one month at 5° C., Time (days) 191
  Peptide Stability in 5.5 pH Citrate Buffer Composition (HPLC as in Example 1): 95.8
[4]; 30° C. after one month at 5° C., Time (days) 270
  Peptide Stability in 5.5 pH Citrate Buffer Composition (HPLC as in Example 1): 95.1
[4]; 30° C. after one month at 5° C., Time (days) 368
  Peptide Stability in 5.5 pH Citrate Buffer Composition (HPLC as in Example 1): 94.5
[4]; 30° C. after one month at 5° C., Time (days) 541
  Peptide Stability in 5.5 pH Citrate Buffer Composition (HPLC as in Example 1): 93.6
[4]; 45° C. after one month at 5° C., Time (days) 45
  Peptide Stability in 5.5 pH Citrate Buffer Composition (HPLC as in Example 1): 96.1
[4]; 45° C. after one month at 5° C., Time (days) 95
  Peptide Stability in 5.5 pH Citrate Buffer Composition (HPLC as in Example 1): 94.1
[4]; 45° C. after one month at 5° C., Time (days) 191
  Peptide Stability in 5.5 pH Citrate Buffer Composition (HPLC as in Example 1): 92.4
[4]; 45° C. after one month at 5° C., Time (days) 270
  Peptide Stability in 5.5 pH Citrate Buffer Composition (HPLC as in Example 1): 89.8
[4]; 45° C. after one month at 5° C., Time (days) 368
  Peptide Stability in 5.5 pH Citrate Buffer Composition (HPLC as in Example 1): 86.5
[4]; 45° C. after one month at 5° C., Time (days) 541
  Peptide Stability in 5.5 pH Citrate Buffer Composition (HPLC as in Example 1): 76.1
[4]; -15° C. after one month at 5° C., Time (days) 45
  Peptide Stability in 5.5 pH Citrate Buffer Composition (HPLC as in Example 1): 98.9
[4]; -15° C. after one month at 5° C., Time (days) 95
  Peptide Stability in 5.5 pH Citrate Buffer Composition (HPLC as in Example 1): 99.0
[4]; -15° C. after one month at 5° C., Time (days) 191
  Peptide Stability in 5.5 pH Citrate Buffer Composition (HPLC as in Example 1): 99.1
[4]; -15° C. after one month at 5° C., Time (days) 270
  Peptide Stability in 5.5 pH Citrate Buffer Composition (HPLC as in Example 1): 98.7
[4]; -15° C. after one month at 5° C., Time (days) 368
  Peptide Stability in 5.5 pH Citrate Buffer Composition (HPLC as in Example 1): 98.6
[4]; -15° C. after one month at 5° C., Time (days) 541
  Peptide Stability in 5.5 pH Citrate Buffer Composition (HPLC as in Example 1): 98.9
[5]
  stability of liquid solution (in words): unexpectedly very stable at about 4° C., still stable at up to about 50 °C and much more stable at 70 °C in comparison to citrate buffer solutions at pH 6.0

## C[C@@H]1NC(=O)CCSSC[C@@H](C(N)=O)NC(=O)[C@@H]2CCCN2C(=O)[C@H](Cc2c[nH]c3ccccc23)NC(=O)[C@H](CC(=O)O)NC(=O)CNC(=O)[C@H](CCCCNC(=N)N)NC1=O [PAI 82, Mpr-A-Har-G-D-W-P-C-NH2] ([Mpa]A[hArg]GDWPC-NH2; disulfide 1-8)
[2]; PAI activity, Example 15, read-out: Appr.IC20
  IC20: 120 nM
[6]; 5° C., Time (Days) 0
  stability by HPLC as in Example 1: 99.6
[6]; 5° C., Time (Days) 29
  stability by HPLC as in Example 1: 98.1
[6]; 5° C., Time (Days) 60
  stability by HPLC as in Example 1: 98.3
[6]; 5° C., Time (Days) 90
  stability by HPLC as in Example 1: 97.3
[6]; 30° C., Time (Days) 29
  stability by HPLC as in Example 1: 97.3
[6]; 30° C., Time (Days) 60
  stability by HPLC as in Example 1: 97.3
[6]; 30° C., Time (Days) 90
  stability by HPLC as in Example 1: 96.5
[6]; 45° C., Time (Days) 29
  stability by HPLC as in Example 1: 95.4
[6]; 45° C., Time (Days) 60
  stability by HPLC as in Example 1: 92.6
[6]; 45° C., Time (Days) 90
  stability by HPLC as in Example 1: 90.6

## C[C@H](NC(=O)[C@@H]1CSSC[C@H](NC(=O)CN)C(=O)NCC(=O)N[C@@H](CCCNC(=N)N)C(=O)NCC(=O)N[C@@H](CC(=O)O)C(=O)N[C@@H](Cc2c[nH]c3ccccc23)C(=O)N2CCC[C@H]2C(=O)N1)C(N)=O [reference compound] (H-GCGRGDWPCA-NH2; disulfide 2-9)
[1]
  M21 cell attachment to vitronectin (in words): potent inhibitors of cell attachment

## [Mpa]KGD[2Nal]P[Pen]-NH2 (cysteine pairing not given here) [Analog #57]
[2]
  IC50: 1000 nM
